# Laboratory results published in ChEMBL document CHEMBL6109153, “Development of Membrane-Targeting Osthole Derivatives Containing Pyridinium Quaternary Ammonium Moieties with Potent Anti-Methicillin-Resistant Staphylococcus aureus Properties” (J Med Chem, 2025).
# Activity calls are given as the source filed them. No cut-off for these calls is given here.
# Experiments:
# [1] = Toxicity in KM mouse assessed as animal death at 40 mg/kg, sc; assay type: organism-based; details: in vivo
# [2] = test system: Staphylococcus aureus; experiment: Antibacterial activity against methicillin-resistant Staphylococcus aureus M11 up to 128 ug/ml in presence of 32 ug/ml peptidoglycan incubated for 16 to 18 hrs; assay type: functional; details: dose <= 128 µg/ml, time 16-18 hrs
# [3] = Toxicity in BALB/c mouse assessed as normal behavior at 5 to 40 mg/kg, ip measured for 7 days; assay type: organism-based; details: in vivo, 168 h, dose 5-40 mg/kg, time 7 day
# [4] = test system: Staphylococcus aureus; experiment: Antibacterial activity against methicillin-resistant Staphylococcus aureus M11 upto 128 ug/ml in presence of phosphatidylethanolamine incubated for 16 to 18 hrs; assay type: functional, organism-based; details: dose <= 128.0 µg/ml, time 16-18 hrs
# [5] = Toxicity in BALB/c mouse model of Sepsis infected with methicillin-resistant Staphylococcus aureus M11 assessed as lesions in kidney at 4 to 8 mg/kg measured after 24 hrs by H and E staining based analysis; assay type: organism-based; details: in vivo, dose 4-8 mg/kg
# [6] = Toxicity in BALB/c mouse assessed as glossy fur at 5 to 40 mg/kg, ip measured for 7 days; assay type: organism-based; details: in vivo, 168 h, dose 5-40 mg/kg, time 7 day
# [7] = Toxicity in BALB/c mouse assessed as normal appetite at 5 to 40 mg/kg, ip measured for 7 days; assay type: organism-based; details: in vivo, 168 h, dose 5-40 mg/kg, time 7 day
# [8] = test system: Staphylococcus aureus; experiment: Disruption of cell membrane in methicillin-resistant Staphylococcus aureus M11 assessed as cell membrane rupture at 4 ug/ml incubated for 4 hrs by SEM analysis; assay type: functional, organism-based; details: dose 4.0 µg/ml
# [9] = test system: Staphylococcus aureus; experiment: Induction of cell permeability in methicillin-resistant Staphylococcus aureus M11 assessed as fold increase in fluorescence intensity at 32 times MIC by SYTOX Green dye based analysis relative to control; assay type: functional
# [10] = test system: Staphylococcus aureus; experiment: Antibacterial activity against methicillin-resistant Staphylococcus aureus M11 up to 128 ug/ml in presence of peptidoglycan incubated for 16 to 18 hrs; assay type: functional, organism-based; details: dose <= 128.0 µg/ml, time 16-18 hrs
# [11] = test system: Staphylococcus aureus; experiment: Induction of resistance development in Staphylococcus aureus ATCC 29213 at 0.5 times MIC measured after 20 passages by broth microdilution method; assay type: functional, organism-based
# [12] = test system: Staphylococcus aureus; experiment: Antibacterial activity against methicillin-resistant Staphylococcus aureus M11 infected in BALB/c mouse model of Sepsis assessed as reduction in bacterial load in skin tissues at 8 mg/kg measured after 24 hrs; assay type: functional
# [13] = Hemolytic activity against sheep erythrocytes; assay type: toxicity, cell-based, Ovis aries, Erythrocyte
# [14] = test system: Staphylococcus aureus; experiment: Antibacterial activity against methicillin-resistant Staphylococcus aureus M11 up to 128 ug/ml in presence of cardiolipin incubated for 16 to 18 hrs; assay type: functional, organism-based; details: dose <= 128.0 µg/ml, time 16-18 hrs
# [15] = test system: Escherichia coli; experiment: Antibacterial activity against Escherichia coli ATCC 25922 incubated for 16 to 20 hrs by broth microdilution method; assay type: functional; details: time 16-20 hrs
# [16] = test system: Staphylococcus aureus; experiment: Induction of bacterial eradication in methicillin-resistant Staphylococcus aureus M11 at 8 times MIC incubated for 4 hrs by time-kill assay; assay type: functional, organism-based
# [17] = test system: Staphylococcus aureus; experiment: Antibacterial activity against methicillin-resistant Staphylococcus aureus M17 incubated for 16 to 20 hrs by broth microdilution method; assay type: functional; details: time 16-20 hrs
# [18] = test system: Staphylococcus aureus; experiment: Disruption of cell membrane in methicillin-resistant Staphylococcus aureus M11 assessed as shrinkage in cell membrane at 4 ug/ml incubated for 4 hrs by SEM analysis; assay type: functional, organism-based; details: dose 4.0 µg/ml
# [19] = test system: Staphylococcus aureus; experiment: Antibacterial activity against methicillin-resistant Staphylococcus aureus M11 infected in BALB/c mouse model of Sepsis assessed as reduction in redness in inner epidermal abscesses at 4 mg/kg measured after 24 hrs; assay type: functional, organism-based
# [20] = Toxicity in BALB/c mouse model of Sepsis infected with methicillin-resistant Staphylococcus aureus M11 assessed as pathological change in spleen at 4 to 8 mg/kg measured after 24 hrs by H and E staining based analysis; assay type: organism-based; details: in vivo, dose 4-8 mg/kg
# [21] = test system: Staphylococcus aureus; experiment: Antibacterial activity against methicillin-resistant Staphylococcus aureus M11 infected in BALB/c mouse model of Sepsis assessed as restoration of smoothness in outer skin at 8 mg/kg measured after 24 hrs; assay type: functional, organism-based
# [22] = test system: Staphylococcus aureus; experiment: Disruption of cell membrane in methicillin-resistant Staphylococcus aureus M11 assessed as wrinkling in cell membrane at 4 ug/ml incubated for 4 hrs by SEM analysis; assay type: functional, organism-based; details: dose 4.0 µg/ml
# [23] = Toxicity in BALB/c mouse model of Sepsis infected with methicillin-resistant Staphylococcus aureus M11 assessed as lesions in spleen at 4 to 8 mg/kg measured after 24 hrs by H and E staining based analysis; assay type: organism-based; details: in vivo, dose 4-8 mg/kg
# [24] = test system: Staphylococcus aureus; experiment: Disruption of cell membrane in methicillin-resistant Staphylococcus aureus M11 assessed as increase in red fluorescence in nuclei at 4 ug/ml incubated for 4 hrs by DAPI/PI staining based analysis; assay type: functional, organism-based; details: dose 4.0 µg/ml
# [25] = test system: Staphylococcus aureus; experiment: Antibacterial activity against methicillin-resistant Staphylococcus aureus M11 incubated for 16 to 20 hrs by broth microdilution method; assay type: functional; details: time 16-20 hrs
# [26] = test system: Staphylococcus aureus; experiment: Antibacterial activity against methicillin-resistant Staphylococcus aureus M11 infected in BALB/c mouse model of Sepsis assessed as reduction in TNF-alpha level measured after 24 hrs; assay type: functional, organism-based; details: dose 4-8 mg/kg
# [27] = test system: Staphylococcus aureus; experiment: Antibacterial activity against methicillin-resistant Staphylococcus aureus M11 assessed as fold increase in MIC up to 128 ug/ml in presence of 128 ug/ml peptidoglycan incubated for 16 to 18 hrs relative to control; assay type: functional; details: dose <= 128 µg/ml; time 16-18 hrs
# [28] = test system: Staphylococcus aureus; experiment: Antibacterial activity against methicillin-resistant Staphylococcus aureus M11 infected in BALB/c mouse model of Sepsis assessed as reduction in abscess size on back at 4 mg/kg measured after 24 hrs; assay type: functional, organism-based
# [29] = Toxicity in BALB/c mouse model of Sepsis infected with methicillin-resistant Staphylococcus aureus M11 assessed as pathological change in liver at 4 to 8 mg/kg measured after 24 hrs by H and E staining based analysis; assay type: organism-based; details: in vivo, dose 4-8 mg/kg
# [30] = test system: Staphylococcus aureus; experiment: Antibacterial activity against methicillin-resistant Staphylococcus aureus M21 incubated for 16 to 20 hrs by broth microdilution method; assay type: functional; details: time 16-20 hrs
# [31] = test system: Staphylococcus aureus; experiment: Induction of bacterial eradication in methicillin-resistant Staphylococcus aureus M11 at 4 times MIC incubated for 8 hrs by time-kill assay; assay type: functional, organism-based
# [32] = test system: Staphylococcus aureus; experiment: Disruption of cell membrane in methicillin-resistant Staphylococcus aureus M11 assessed as roughness in cell membrane at 4 ug/ml incubated for 4 hrs by SEM analysis; assay type: functional, organism-based; details: dose 4.0 µg/ml
# [33] = test system: Staphylococcus aureus; experiment: Antibacterial activity against methicillin-resistant Staphylococcus aureus M11 infected in BALB/c mouse model of Sepsis assessed as reduction in bacterial count in skin tissues at 4 mg/kg measured after 24 hrs relative to control; assay type: functional; parameters: scale not given: the % may be the effect or the level left
# [34] = test system: Staphylococcus aureus; experiment: Disruption of cell membrane in methicillin-resistant Staphylococcus aureus M11 assessed as fold increase in protein leakage at 4 ug/ml incubated for 4 hrs by micro-spectrophotometric analysis relative to control; assay type: functional; details: dose 4 µg/ml
# [35] = Toxicity in BALB/c mouse model of Sepsis infected with methicillin-resistant Staphylococcus aureus M11 assessed as lesions in heart at 4 to 8 mg/kg measured after 24 hrs by H and E staining based analysis; assay type: organism-based; details: in vivo, dose 4-8 mg/kg
# [36] = test system: Staphylococcus aureus; experiment: Antibacterial activity against methicillin-resistant Staphylococcus aureus M11 infected in BALB/c mouse model of Sepsis assessed as smooth in inner epidermis at 8 mg/kg measured after 24 hrs; assay type: functional, organism-based
# [37] = test system: Staphylococcus aureus; experiment: Induction of cell permeability in methicillin-resistant Staphylococcus aureus M11 assessed as increase in fluorescence intensity by SYTOX Green dye based analysis; assay type: functional, organism-based
SMILES,Activity [1],MIC [2] [µg/mL],Activity [3],Activity [4],Activity [5],Activity [6],Activity [7],Activity [8],fold change (FC) [9],Activity [10],Activity [11],Activity [12] [log10CFU/g],HC50 [13] [µg/mL],Activity [14],MIC [15] [µg/mL],Activity [16],MIC [17] [µg/mL],Activity [18],Activity [19],Activity [20],also measured
CCCCCNC(=O)C[n+]1ccc(SCCCCCOc2ccc3ccc(=O)oc3c2CC=C(C)C)cc1.[Br-],Non-toxic,1,Non-toxic,Active; Compound Showed Only Minor Or No Change In Mic,Non-toxic,Non-toxic,Non-toxic,Active,~10,Active; Compound Showed Only Minor Or No Change In Mic,inactive,3.828,> 160,Active; Compound Showed Only Minor Or No Change In Mic,> 128,Active,0.5,Active,Active,Non-toxic,Activity [21]: Active; Activity [22]: Active; Activity [23]: Non-toxic; Activity [24]: Active; MIC [25]: 0.5 µg/mL; Activity [26]: Dose-dependent-effect; Compound Has Slightly Greater Efficacy Than Vancomycin; fold change (FC) [27]: 32; Activity [28]: Active; Activity [29]: Non-toxic; MIC [30]: 0.5 µg/mL; Activity [31]: Active; Activity [32]: Active; Activity [33]: 98.702%; fold change (FC) [34]: ~4; Activity [35]: Non-toxic; Activity [36]: Active; Activity [37]: Dose-dependent-effect
CC(C)=CCc1c(OCCCCSc2cc[n+](CC(=O)N(CC(C)C)CC(C)C)cc2)ccc2ccc(=O)oc12.[Br-],Non-toxic,1,Non-toxic,Active; Compound Showed Only Minor Or No Change In Mic,Non-toxic,Non-toxic,Non-toxic,Active,~10,Active; Compound Showed Only Minor Or No Change In Mic,inactive,4.252,> 160,Active; Compound Showed Only Minor Or No Change In Mic,> 128,Active,0.5,Active,Active,Non-toxic,Activity [21]: Active; Activity [22]: Active; Activity [23]: Non-toxic; Activity [24]: Active; MIC [25]: 0.5 µg/mL; Activity [26]: Dose-dependent-effect; Compound Has Slightly Greater Efficacy Than Vancomycin; fold change (FC) [27]: 32; Activity [28]: Active; Activity [29]: Non-toxic; MIC [30]: 0.5 µg/mL; Activity [31]: Active; Activity [32]: Active; Activity [33]: 98.886%; fold change (FC) [34]: ~4; Activity [35]: Non-toxic; Activity [36]: Active; Activity [37]: Dose-dependent-effect
